Earlier results, collected in patent publication US20080221048A1, “Lyophilized azithromycin formulation” (APP Pharmaceuticals, LLC., priority 2004, published 2008).
Where two headings read alike, the source gives them in different places.

Conditions: for time diluted azithromycin for injection is stable: diluted to 1.0-2.0 mg/mL

In the case of CC[C@H]1OC(=O)[C@H](C)[C@@H](O[C@H]2C[C@@](C)(OC)[C@@H](O)[C@H](C)O2)[C@H](C)[C@@H](OC2O[C@H](C)C[C@H](N(C)C)[C@H]2O)C(C)(O)C[C@@H](C)CN(C)[C@H](C)[C@@H](O)[C@]1(C)O (stereo in doubt) [azithromycin, (2R,3S,4R,5R,8R,10R,11R,12S,13S,14R)-13-[(2,6-dideoxy-3-C-methyl-3-O-methyl-α-L-ribo-hexo-pyranosyl)oxy]-2-ethyl-3,4,10-trihydroxy-3,5,6,8,10,12,14-heptamethyl-11-[[3,4,6-trideoxy-3-(dimethylamino)-β-D-xylo-hexopyranosyl]oxy]-1-oxa-6-azacyclopentadecan-15-one], the “time diluted azithromycin for injection is stable” value (at or below room temperature (30° C. or 86° F.)) is given as 24 h, the “time diluted azithromycin for injection is stable” value (stored under refrigeration (5° C. or 41° F.)) is given as 170 h and the “time reconstituted azithromycin solution is stable” value (reconstituted solution (about 100 mg/mL), stored below 30° C. or 86° F.) is given as 24 h.
